pEC50: −log10 of the molar value. Like-named read-outs stand apart in the source and are kept apart here.

Broadly, the pEC50 is the EC50 on a negative log10 scale, so that one unit is a factor of ten. What is called AUC(0-inf) is total exposure, with the tail of the curve extrapolated. A high value points to more exposure. Broadly, the AUC(0-t) is the area under the concentration-time curve up to a stated or last time point. Read a high AUC(0-t) as high exposure. The term Cmax denotes the peak of the concentration-time curve. For orientation: Tmax means the time from dosing to the highest level. One may read the half-life as the time in which the quantity being followed falls by half. Lower therefore signals fast loss.

Data set [1] in a line: Long-term administration, body weight and food intake of mice fed with CDAHFD high-fat diet. In kind it is in vivo, GLP-1R humanized C57BL/6 mice. The source says: The purpose of this assay was to evaluate the effects of long-term administration of the compound on the body weight and food intake of GLP-1R humanized C57BL/6 mice fed with CDAHFD high-fat diet.
C57BL/6_hGLP-1R, male, 5-8 weeks, purchased from Biocytogen Pharmaceuticals (Beijing) Co., Ltd. • Choline-deficient, L-amino acid-defined, high-fat diet (CDAHFD), purchased from Shanghai Bopai Biotechnology Co., Ltd. (Research diet-A06071302) • Ultra-clean bench (CJ-2F, Suzhou Fengshi Experimental Animal Equipment Co., Ltd. • Electronic balance (BSA2202S-CW, Sartorius)
• 3.1 On the day of starting feeding the high-fat diet, the C57BL/6 mice were randomly grouped according to body weight. The first group was Blank, with 7 mice, and was fed with normal control diet. The remaining animals were the modeling group, and were fed with the high-fat diet until the end of the experiment. • 3.2 In week 4 of CDAHFD feeding, the animals in the modeling group were randomly grouped according to body weight, with 7 mice in each group. The first group was Vehicle group (Vehicle: 10%PEG400/10%PG/80% glycine buffer (100 mM glycine, 26 mM NaOH, pH 9) buffer), and was administered solvent; the remaining group was administration group. Administration regime: the corresponding compound was orally administered for a period of 21 days, once each day, the administration dose being 0.3 mg/kg, 1 mg/kg, 3 mg/kg, and 10 mg/kg, and the administration volume being 10 mL/kg. The Blank group continued to be fed with the normal diet, and was orally administered solvent once each day. • 3.3 The day of administration was defined as Day 0. • 3.4 The animals were weighed at each administration and the data were recorded. Oral administration was performed according to body weight, and the administration volume was 10 mL/kg. • 3.5 Starting from day 0 of the experiment, the food intake of the mice in each group was measured every three days. Specifically, after each weighing and administration, the diet was renewed, and the added amount and remaining amount were recorded. • 3.6 On Day 21, the end day, all mice were euthanized sequentially according to grouping order. Plasma and tissues (liver, kidney, ileum, pancreas, and brain) were taken for PK determination, and serum was taken for blood biochemistry determination (ALT, AST, TG, TC, and LDL-C).
The body weight and body weight change rate of the mice after administration were summarized and statistically analyzed. The body weight change rate was calculated according to (BWt - BW0) / BW0 × 100%, where BWt represents mouse body weight on day t of the experiment, and BW0 represents mouse body weight on day 0 of the experiment.

The target of another data set is T1, human GLP-1 receptor (Homo sapiens, UniProt P43220).
T1 construct: expressed in transfected cells
As to the kind of experiment: cAMP production in cell line stably transformed with human GLP1 receptor, 30 min co-incubation (HTRF). In kind it is cell-based. As to conditions: CHO-K1/GLP-1R/CRE-luc cells, stimulation for 0.5 h.

Data set [2] in a line: Pharmacokinetic evaluation in Macaca fascicularis monkeys, oral administration. In kind it is in vivo. Conditions: cynomolgus monkey, p.o. 5 mg/kg, plasma; for MRT inf: read-out: MRT 0-∞. The method, then:
Macaca fascicularis monkeys were used as test animals to study the pharmacokinetic behavior of the compound of the present invention, administered orally at a dose of 5 mg/kg, in Macaca fascicularis monkeys (plasma).
Macaca fascicularis monkeys, 3 per group, male.
Preparation of drug for oral administration: 10%PEG400/10%PG/80% glycine buffer (100 mM glycine, 64 Mm NaOH, […]) buffer.
Single PK: The compound of the present invention was weighed into a 100 mL glass bottle, and the solution was added. The pH was first adjusted with 1 M NaOH until the compound dissolves to obtain a clear solution, and then the pH was readjusted to pH 9.0-9.5 with 1 M HCl. Sonication was performed for 10 min to obtain a colorless clear solution having a concentration of 1 mg/mL.
Three Macaca fascicularis monkeys, male, respectively administered p.o. after fasting overnight, at a dose of 5 mg/kg and in an administration volume of 5 mL/kg.
Blood collection: 0.3 mL of blood was collected from the forelimb vein of the Macaca fascicularis monkeys before administration and at 0.25, 0.5, 1, 2, 4, 6, 8, and 24 h after administration. The blood samples were placed in EDTA-K2 anticoagulant tubes and centrifuged at 6000 rpm at 4°C for 6 min to separate plasma, which was stored at -80°C. The Macaca fascicularis monkeys were fed 4 h after administration.
• 1) 40 µL of a plasma sample was added with 160 µL of acetonitrile for precipitation, and after mixing, the mixture was centrifuged at 3500 × g for 5 to 20 min. • 2) The supernatant solution after treatment was taken for LC/MS/MS analysis of the concentration of the test compound. The LC/MS/MS analysis instrument was AB Sciex API 4000 Qtrap.
• Liquid phase condition: Shimadzu LC-20AD pump • Chromatographic column: Agilent ZORBAX XDB-C18 (50×2.1 mm, 3.5 µm) Mobile phase: Solution A was 0.1% formic acid aqueous solution, and Solution B was acetonitrile • Flow rate: 0.4 mL/min • Elution time: 0-4.0 min, the eluent was as follows: […]

Where [3] appears, read: 3 mg/kg orally once each day for 21 days.

T1 sequence (P43220 24-463): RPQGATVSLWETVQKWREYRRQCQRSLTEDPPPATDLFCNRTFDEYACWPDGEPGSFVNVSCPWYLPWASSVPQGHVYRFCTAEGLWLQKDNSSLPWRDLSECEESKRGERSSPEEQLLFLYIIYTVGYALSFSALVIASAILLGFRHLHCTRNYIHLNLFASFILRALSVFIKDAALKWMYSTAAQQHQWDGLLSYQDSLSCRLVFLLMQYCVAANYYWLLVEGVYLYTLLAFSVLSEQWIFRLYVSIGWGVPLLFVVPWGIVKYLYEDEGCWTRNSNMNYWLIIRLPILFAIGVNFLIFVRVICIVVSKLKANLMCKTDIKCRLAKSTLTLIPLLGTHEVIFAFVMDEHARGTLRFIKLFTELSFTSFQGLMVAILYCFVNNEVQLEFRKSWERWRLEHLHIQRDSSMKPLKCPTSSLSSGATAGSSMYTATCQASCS

For the molecule `Cc1cc(-n2nc3c(c2-n2ccn(-c4ccc5c(cnn5C5CC5)c4F)c2=O)[C@H](C)N(C(=O)c2cc4cc([C@H]5CCOC(C)(C)C5)ccc4n2[C@@]2(c4noc(=O)[nH]4)C[C@@H]2COC2CC2)CC3)cc(C)c1F` [Example 67], in data set [1] (setting [3]), the “Body weight change (%)-” value is reported as -20.34%. Moreover, on human GLP-1 receptor, the negative-log EC50 (pEC50) is 8.85.
Turning to `C#C[C@H]1C[C@]1(c1noc(=O)[nH]1)n1c(C(=O)N2CCc3nn(-c4cc(C)c(F)c(C)c4)c(-n4ccn(-c5ccc6c(cnn6C6CC6)c5F)c4=O)c3[C@@H]2C)cc2cc([C@H]3CCOC(C)(C)C3)ccc21` [Example 143], in data set [2] (male), the AUC(0-inf) amounted to 26200 ng·h/mL, the exposure AUC(0-t) was determined as 26000 ng·h/mL, the concentration peaked (Cmax) at 4040 ng/mL and the time to peak (Tmax) amounted to 2.7 h. Moreover, in data set [2] (male), the half-life is 3.2 h and the MRT inf came out at 5.1 h. In data set [1] (setting [3]), the “Body weight change (%)-” value is -19.43%.
On to `CC#C[C@H]1C[C@]1(c1noc(=O)[nH]1)n1c(C(=O)N2CCc3nn(-c4cc(C)c(F)c(C)c4)c(-n4ccn(-c5ccc6c(cnn6C6CC6)c5F)c4=O)c3[C@@H]2C)cc2cc([C@H]3CCOC(C)(C)C3)ccc21` [Example 144, 3-((1S,2R)-1-(2-((S)-3-(3-(1-cyclopropyl-4-fluoro-1H-indazole-5-yl)-2-carbonyl-2,3-dihydro-1H-imidazole-1-yl)-2-(4-fluoro-3,5-dimethylphenyl)-4-methyl-4,5,6,7-tetrahydro-2H-pyrazolo[4,3-c]pyridin-5-carbonyl)-5-((S)-2,2-dimethyltetrahydro-2H-pyrano-4-yl)-1H-indole-1-yl)-2-(propyl-1-alkynyl-1-yl)cyclopropyl)-1,2,4-oxadiazol-5(4H)-one], for which the “Body weight change (%)-” value in data set [1] (0.3mg/kg orally once each day for 21 days) was -10.40%; in data set [1] (1 mg/kg orally once each day for 21 days) it was -14.70%. Also, the pEC50 at human GLP-1 receptor (read-out: EC50) is 9.00.
`[2H]C([2H])([2H])n1nc2c3c(c(-n4ccn(-c5c6c(nn5-c5cc(C)c(F)c(C)c5)CCN(C(=O)c5cc7cc([C@H]8CCOC(C)(C)C8)ccc7n5[C@@]5(c7noc(=O)[nH]7)C[C@@H]5C)[C@H]6C)c4=O)ccc31)OCCC2` [Example 282, 3-((1S,2S)-1-(5-((S)-2,2-dimethyltetrahydro-2H-pyran-4-yl)-2-((S)-2-(4-fluoro-3,5-dimethylphenyl)-4-methyl-3-(3-(2-(methyl-d3)-2,7,8,9-tetrahydrooxaheptano[4,3,2-cd]indazol-5-yl)-2-carbonyl-2,3-dihydro-1H-imidazol-1-yl)-4,5,6,7-tetrahydro-2H-pyrazolo[4,3-c]pyridine-5-carbonyl)-1H-indol-1-yl)-2-methylcyclopropyl)-1,2,4-oxadiazol-5(4H)-one]: in data set [2], the AUC(0-inf) was 17000 ng·h/mL, the AUC(0-t) is 7560 ng·h/mL, the Cmax is 570 ng/mL and the Tmax came out at 4 h. For the same molecule, in data set [2], the half-life is 47.6 h and the MRT inf was found to be 68.9 h.
